Data on 7 compounds can be found in article PMC10056636, “3-Amino-Substituted Analogues of Fusidic Acid as Membrane-Active Antibacterial Compounds” (Membranes, 2023).

In data set [1] the test system is human embryonic kidney cell line HEK293 (ATCC CRL-1573). Description: in vitro. The class given is cell-based. The following applies: for CC50: human, 20 h. The method, then:
(§1) HEK293 cells were counted manually in a Neubauer hemocytometer and then plated in 384-well plates containing the test compounds to give a density of 5000 cells per well in a final volume of 50 µL. DMEM supplemented with 10% FBS was used as the growth medium, and the cells were incubated together with the compounds for 20 h at 37 °C in 5% CO2.
(§2) The cytotoxicity (or cell viability) was measured by fluorescence, ex: 560/10 nm, em: 590/10 nm (F560/590), after addition of 5 µL of 25 µg/mL resazurin (2.3 µg/mL final concentration) and after incubation for further 3 h at 37 °C in 5% CO2. The fluorescence intensity was measured using a Tecan M1000 Pro monochromator plate reader with automatic gain control. The CC50 (50% cytotoxicity concentration) values were calculated by curve fitting of inhibition vs. log(concentration) using a sigmoidal dose–response function, with variable fitting values for bottom, top, and slope. In addition, the maximal percentage of cytotoxicity is reported as DMax, indicating any compounds with partial cytotoxicity. The curve fitting was implemented using Pipeline Pilot’s dose–response component. The results were similar to those obtained by other curve-fitting tools, such as GraphPad’s Prism and IDBS’s XlFit. Any value with > indicated samples with no activity (low DMax value) or samples with CC50 values above the maximum tested concentration (higher DMax value).
(§3) In addition, samples were flagged as partially cytotoxic if DMax ≥ 50%, even for CC50 > the maximum tested concentration.
(§4) Tamoxifen served as a positive cytotoxicity standard. Melittin was used as a positive hemolytic standard.

The nature of a further data set: in vitro. The class given is cell-based, human. The following applies: human, CC50. The method, then:
as §1, §2, §3, §4

Another data set in a line: Hemolysis assay. The conditions noted are these: for hemolysis at 1 h: human, Dmax (maximal percentage of hemolysis). The class given is cell-based, human. On the procedure: (§5) Human whole blood was washed three times with 3 volumes of 0.9% NaCl and then resuspended in the same medium to a concentration of 0.5 × 10^8 cells/mL, as determined by manual cell count in a Neubauer hemocytometer. The washed cells were then added to 384-well plates containing the test compounds to a final volume of 50 µL. After shaking on a plate shaker for 10 min, the plates were incubated for 1 h at 37 °C. After incubation, the plates were centrifuged at 1000× g for 10 min to pellet the cells and debris; 25 µL of the supernatant was then transferred to a polystyrene 384-well assay plate.
(§6) Hemolysis was monitored by measuring the supernatant absorbance at […] (OD405). The absorbance was measured using a Tecan M1000 Pro monochromator plate reader. HC10 and HC50 (10% and 50% hemolysis concentrations, respectively) were calculated by curve fitting of inhibition vs. log(concentration) using a sigmoidal dose–response function with variable fitting values for top, bottom, and slope. In addition, the maximal percentage of hemolysis is reported as DMax, indicating any compounds with partial hemolysis. The curve fitting was implemented using Pipeline Pilot’s dose–response component. […] Any value with > indicated sample with no activity (low DMax value) or samples with HC10 values above the maximum tested concentration (higher DMax value).
(§7) In addition, samples were flagged as partially hemolytic if DMax ≥ 50%, even for HC10 > the maximum tested concentration. […]

A further data set concerns human red blood cells. The data set can be described thus: Hemolysis assay. The following applies: human, 1 h. The class given is cell-based. On the procedure: as §5, §6, §7
The test system of data set [2] is Staphylococcus aureus (ATCC 43300) (MRSA). The data set can be described thus: Antibacterial whole-cell growth inhibition (MIC, CO-ADD). The class given is cell-based. The conditions noted are these: for primary screening: antimicrobial activity: S. aureus (MRSA), primary screen at 32 μg/mL. The method, then: Antibacterial screening was carried out by the serial dilution method. All bacteria were cultured in the cation-adjusted Mueller Hinton broth (CAMHB) at 37 °C overnight. A sample of each culture was then diluted 40-fold in fresh broth and incubated at 37 °C for 1.5–3 h. The resultant mid-log phase cultures were diluted (CFU/mL measured by OD600) and then added into each well containing a test compound, giving a cell density of 5 × 10^5 CFU/mL and a total volume of 50 µL. All the plates were covered and incubated at 37 °C for 18 h without shaking.
Inhibition of bacterial growth was determined by measuring the absorbance at 600 nm (OD600) with a Tecan M1000 Pro monochromator plate reader. […]

Setting [3] is: Staphylococcus aureus, S. aureus (MRSA) ATCC 43300, inhibition ≥80%, two replicates (n = 2), read-out: MIC.

The structures appear in SMILES notation. ≈ marks a conversion by molar mass, not a printed value. Where two headings read alike, the source gives them in different places.

Broadly, the CC50 is the concentration giving 50% cytotoxicity. The MIC is the lowest concentration found to suppress growth. `CC(=O)O[C@H]1C[C@@]2(C)[C@@H](CC(=O)[C@H]3[C@@]4(C)CCC(=O)[C@@H](C)[C@@H]4CC[C@@]32C)/C1=C(\CCC=C(C)C)C(=O)O` [Compound 1]: the CC50 in data set [1] is >32 >32 µg/mL. In addition, the CC50 at 20 h in “in vitro” was > 32 µg/mL. The hemolysis at 1 h in “Hemolysis assay” came to 7.3%. In the data set on human red blood cells, the “Dmax (maximal percentage of hemolysis)” value is 10.6% and the HC50 was >32 >32 µg/mL. Moreover, the “primary screening: antimicrobial activity” value (“primary screening” for short) in data set [2] is “showed antimicrobial activity”. The minimum inhibitory concentration (MIC) in data set [2] (setting [3]) stood at 8 µg/mL (≈ 15.6 µM).

With `CC(=O)O[C@H]1C[C@@]2(C)[C@@H](CC(=O)[C@H]3[C@@]4(C)CC[C@H](N5CCCC5)[C@@H](C)[C@@H]4CC[C@@]32C)/C1=C(\CCC=C(C)C)C(=O)O` [Compound 7], the CC50 in data set [1] is on record as >32 >32 µg/mL. The CC50 at 20 h in the data set “in vitro” was > 32 µg/mL. Besides, in “Hemolysis assay”, the hemolysis at 1 h is 2.3%. Further, in the data set with human red blood cells, the “Dmax (maximal percentage of hemolysis)” value amounted to 2.6% and the HC50 is >32 >32 µg/mL. The “primary screening” value in data set [2] is reported as “showed antimicrobial activity”. The MIC in data set [2] (setting [3]) turned out to be 8 µg/mL (≈ 14.1 µM).

Turning to `CC(=O)O[C@H]1C[C@@]2(C)[C@@H](CC(=O)[C@H]3[C@@]4(C)CC[C@H](NCc5ccccc5)[C@@H](C)[C@@H]4CC[C@@]32C)/C1=C(\CCC=C(C)C)C(=O)O` [Compound 9], in data set [1], the CC50 is given as >32 >32 µg/mL. For the same compound, the CC50 at 20 h in “in vitro” is > 32 µg/mL. Besides, the hemolysis at 1 h in the data set “Hemolysis assay” worked out at 3.7%. Also, in the data set with human red blood cells, the “Dmax (maximal percentage of hemolysis)” value stood at 2.3% and the HC50 is >32 >32 µg/mL. For the same compound, the “primary screening” value in data set [2] is given as “showed antimicrobial activity”. In addition, the MIC in data set [2] (setting [3]) was 8 µg/mL (≈ 13.2 µM).

In data set [1], `CCCCN[C@H]1CC[C@@]2(C)[C@@H](CC[C@@]3(C)[C@H]2[C@H](O)C[C@H]2/C(=C(\CCC=C(C)C)C(=O)OC)[C@@H](OC(C)=O)C[C@@]23C)[C@@H]1C` [Compound 14] registered a 50% cytotoxic concentration (CC50) of 23.8 µg/mL (≈ 40.6 µM). The same compound returned a half-maximal cytotoxic concentration (CC50) at 20 h in “in vitro” of 26 µg/mL (≈ 44.4 µM). Also, the hemolysis at 1 h in the data set “Hemolysis assay” is 3.4%. In the data set on human red blood cells, the “Dmax (maximal percentage of hemolysis)” value came to 3.6% and the HC50 is given as >32 >32 µg/mL. In data set [2] (S. aureus (MRSA) ATCC 43300, inhibition ≥80%, two replicates (n = 2)), this compound yielded an MIC of 32 µg/mL (≈ 54.6 µM). The “primary screening” value in data set [2] is “showed antimicrobial activity”. Also, the MIC in data set [2] (setting [3]) was determined as 32 µg/mL (≈ 54.6 µM).

`CC[C@H](C)[C@H](NC(=O)CN)C(=O)NCC(=O)N[C@@H](C)C(=O)N[C@H](C(=O)N[C@@H](CC(C)C)C(=O)N[C@@H](CCCCN)C(=O)N[C@H](C(=O)N[C@@H](CC(C)C)C(=O)N[C@H](C(=O)N[C@H](C(=O)NCC(=O)N[C@@H](CC(C)C)C(=O)N1CCC[C@H]1C(=O)N[C@@H](C)C(=O)N[C@@H](CC(C)C)C(=O)N[C@H](C(=O)N[C@@H](CO)C(=O)N[C@@H](Cc1c[nH]c2ccccc12)C(=O)N[C@H](C(=O)N[C@@H](CCCCN)C(=O)N[C@@H](CCCNC(=N)N)C(=O)N[C@@H](CCCCN)C(=O)N[C@@H](CCCNC(=N)N)C(=O)N[C@@H](CCC(N)=O)C(=O)N[C@@H](CCC(N)=O)C(N)=O)[C@@H](C)CC)[C@@H](C)CC)[C@@H](C)O)[C@@H](C)O)C(C)C)C(C)C` [Melittin, reference compound]: in “Hemolysis assay” (human erythrocytes, two replicates per cell, read-out: Dmax (maximal percentage of hemolysis)), the hemolysis came to 50%.

For `CC/C(=C(\c1ccccc1)c1ccc(OCCN(C)C)cc1)c1ccccc1` [Tamoxifen, reference compound], in data set [1], the “Dmax (maximal percentage of cytotoxicity)” value amounted to 50%. The CC50 at 20 h in the data set “in vitro” was 9 µg/mL (≈ 24.2 µM).

`CN[C@H](CC(C)C)C(=O)N[C@H]1C(=O)N[C@@H](CC(N)=O)C(=O)N[C@H]2C(=O)N[C@H]3C(=O)N[C@H](C(=O)N[C@H](C(=O)O)c4cc(O)cc(O)c4-c4cc3ccc4O)[C@H](O)c3ccc(c(Cl)c3)Oc3cc2cc(c3O[C@@H]2O[C@H](CO)[C@@H](O)[C@H](O)[C@H]2O[C@H]2C[C@](C)(N)[C@H](O)[C@H](C)O2)Oc2ccc(cc2Cl)[C@H]1O` [Vancomycin, reference compound] registered a minimum inhibitory concentration (MIC) in data set [2] (Staphylococcus aureus) of 1 µg/mL (≈ 0.69 µM).
